Experimental data published in US20260285850A1, “SUBSTITUTED OXAZOLIDINONES AND IMIDAZOLINONES AS HERBICIDES” (FMC CORPORATION, priority 2023, published 2026).

Key:
Format in all cases: in vivo
[1] = system: sedge, umbrella (small-flower umbrella sedge, Cyperus difformis); assay: Test B flooded paddy test, visual plant response rating 0-100; settings: 250 g ai/ha, Flood, applied to paddy water, evaluated after 13 days
Procedure, shortened: (§1)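 2-leaf plants; flood 3 cm over soil; compound dosed into paddy water; depth kept constant; greenhouse 13 d; visual scoring vs controls. Dash = no result.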

[2] = system: barnyardgrass (Echinochloa crusgalli); assay: as above; settings: 250 g ai/ha, Flood, applied to paddy water, evaluated after 13 days
Procedure, shortened: as §1

[3] = system: ducksalad (Heteranthera limosa); assay: as above; settings: 250 g ai/ha, Flood, applied to paddy water, evaluated after 13 days
Procedure, shortened: as §1

rice (Oryza sativa) = assay: as above; settings: 250 g ai/ha, Flood, applied to paddy water, evaluated after 13 days
Procedure, shortened: as §1

[4] = system: wheat (Triticum aestivum); assay: Test A postemergence application, visual injury rating 0-100
Procedure, shortened: (§2)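 Plants were grown in a loam soil-sand blend and treated with test chemical in a non-phytotoxic solvent mixture containing surfactant, either sprayed on soil preemergence or applied postemergence to 2-10 cm plants. After 10 days in a greenhouse, injury was scored visually against untreated controls, 0 meaning no effect and 100 complete control.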

[5] = system: ragweed (common ragweed, Ambrosia artemisiifolia); assay: as above
Procedure, shortened: as §2

kochia (Bassia scoparia) [6] = assay: as above
Procedure, shortened: as §2

[7] = system: blackgrass (Alopecurus myosuroides); assay: as above
Procedure, shortened: as §2

corn (Zea mays) [8] = assay: as above
Procedure, shortened: as §2

[9] = system: barnyardgrass (Echinochloa crus-galli); assay: as above
Procedure, shortened: as §2

[10] = system: palmer (palmer amaranth, palmer pigweed, Amaranthus palmeri); assay: as above
Procedure, shortened: as §2

[11] = system: green foxtail (Setaria viridis); assay: as above
Procedure, shortened: as §2

soybean (Glycine max) [12] = assay: as above
Procedure, shortened: as §2

[13] = system: ryegrass, Italian (italian ryegrass, Lolium multiflorum); assay: as above
Procedure, shortened: as §2

[14] = system: oat, wild (wild oat, Avena fatua); assay: as above
Procedure, shortened: as §2

[15] = system: horseweed (Erigeron canadensis); assay: as above
Procedure, shortened: as §2

[16] = system: wheat (Triticum aestivum); assay: Test A preemergence soil spray, visual injury rating 0-100; settings: 10 days
Procedure, shortened: as §2

[17] = system: ragweed (common ragweed, Ambrosia artemisiifolia); assay: as above; settings: 10 days
Procedure, shortened: as §2

kochia (Bassia scoparia) [18] = assay: as above; settings: 10 days
Procedure, shortened: as §2

[19] = system: blackgrass (Alopecurus myosuroides); assay: as above; settings: 10 days
Procedure, shortened: as §2

corn (Zea mays) [20] = assay: as above; settings: 10 days
Procedure, shortened: as §2

[21] = system: barnyardgrass (Echinochloa crus-galli); assay: as above; settings: 10 days
Procedure, shortened: as §2

[22] = system: palmer (palmer amaranth, palmer pigweed, Amaranthus palmeri); assay: as above; settings: 10 days
Procedure, shortened: as §2

[23] = system: green foxtail (Setaria viridis); assay: as above; settings: 10 days
Procedure, shortened: as §2

soybean (Glycine max) [24] = assay: as above; settings: 10 days
Procedure, shortened: as §2

[25] = system: ryegrass, Italian (italian ryegrass, Lolium multiflorum); assay: as above; settings: 10 days
Procedure, shortened: as §2

[26] = system: oat, wild (wild oat, Avena fatua); assay: as above; settings: 10 days
Procedure, shortened: as §2

[27] = 62 g ai/ha, postemergence, 10 days, 0 = no effect, 100 = complete control
[28] = Postemergence, 16 g ai/ha, greenhouse 10 days, 0 no effect, 100 complete control
[29] = 62 g ai/ha, 0 = no effect, 100 = complete control

## COC(=O)COC(=O)C1=CCC(NC(=O)C2(C)CN(c3cc(F)cc(F)c3)C(=O)O2)C1 (centres unmarked) [Compound 107]
[1]
  Plant response rating, Sedge, Umbrella (0 to 100 scale, 0 is no effect and 100 is complete control): 0
[2]
  Plant response rating, Barnyardgrass (0 to 100 scale, 0 is no effect and 100 is complete control): 0
[3]
  Plant response rating, Ducksalad (0 to 100 scale, 0 is no effect and 100 is complete control): 0
Rice (Oryza sativa)
  Plant response rating, Rice (0 to 100 scale, 0 is no effect and 100 is complete control): 0
[4]; [27]
  Wheat plant response rating (0-100): 50
[4]; [28]
  Wheat plant response rating (0 to 100 scale): 0
[5]; [27]
  Ragweed plant response rating (0-100): 20
[5]; [28]
  Ragweed plant response rating (0 to 100 scale): 0
Kochia (Bassia scoparia) [6]; [27]
  Kochia plant response rating (0-100): 10
Kochia (Bassia scoparia) [6]; [28]
  Kochia plant response rating (0 to 100 scale): 0
[7]; [27]
  Blackgrass plant response rating (0-100): 60
[7]; [28]
  Blackgrass plant response rating (0 to 100 scale): 0
Corn (Zea mays) [8]; [27]
  Corn plant response rating (0-100): 100
Corn (Zea mays) [8]; [28]
  Corn plant response rating (0 to 100 scale): 0
[9]; [27]
  Barnyardgrass plant response rating (0-100): 80
[9]; [28]
  Barnyardgrass plant response rating (0 to 100 scale): 0
[10]; [27]
  Pigweed, Palmer plant response rating (0-100): 30
[10]; [28]
  Pigweed, Palmer plant response rating (0 to 100 scale): 0
[11]; [27]
  Foxtail, Green plant response rating (0-100): 20
[11]; [28]
  Foxtail, Green plant response rating (0 to 100 scale): 0
Soybean (Glycine max) [12]; [27]
  Soybean plant response rating (0-100): 40
Soybean (Glycine max) [12]; [28]
  Soybean plant response rating (0 to 100 scale): 0
[13]; [27]
  Ryegrass, Italian plant response rating (0-100): 60
[13]; [28]
  Ryegrass, Italian plant response rating (0 to 100 scale): 0
[14]; [27]
  Oat, Wild plant response rating (0-100): 20
[14]; [28]
  Oat, Wild plant response rating (0 to 100 scale): 0
[15]; [27]
  Horseweed plant response rating (0-100): 30
[15]; [28]
  Horseweed plant response rating (0 to 100 scale): 0
[16]; 16 g ai/ha, 0 to 100 scale
  Wheat plant response rating: 0
[16]; [29]
  Wheat plant response rating (0-100): 10
[17]; 16 g ai/ha, 0 to 100 scale
  Ragweed plant response rating: 0
[17]; [29]
  Ragweed plant response rating (0-100): 0
Kochia (Bassia scoparia) [18]; 16 g ai/ha, 0 to 100 scale
  Kochia plant response rating: 0
Kochia (Bassia scoparia) [18]; [29]
  Kochia plant response rating (0-100): 0
[19]; 16 g ai/ha, 0 to 100 scale
  Blackgrass plant response rating: 0
[19]; [29]
  Blackgrass plant response rating (0-100): 0
Corn (Zea mays) [20]; 16 g ai/ha, 0 to 100 scale
  Corn plant response rating: 0
Corn (Zea mays) [20]; [29]
  Corn plant response rating (0-100): 0
[21]; 16 g ai/ha, 0 to 100 scale
  Barnyardgrass plant response rating: 0
[21]; [29]
  Barnyardgrass plant response rating (0-100): 10
[22]; 16 g ai/ha, 0 to 100 scale
  Pigweed, Palmer plant response rating: 0
[22]; [29]
  Pigweed, Palmer plant response rating (0-100): 0
[23]; 16 g ai/ha, 0 to 100 scale
  Foxtail, Green plant response rating: 0
[23]; [29]
  Foxtail, Green plant response rating (0-100): 0
Soybean (Glycine max) [24]; 16 g ai/ha, 0 to 100 scale
  Soybean plant response rating: 0
Soybean (Glycine max) [24]; [29]
  Soybean plant response rating (0-100): 0
[25]; 16 g ai/ha, 0 to 100 scale
  Ryegrass, Italian plant response rating: 10
[25]; [29]
  Ryegrass, Italian plant response rating (0-100): 40
[26]; 16 g ai/ha, 0 to 100 scale
  Oat, Wild plant response rating: 0
[26]; [29]
  Oat, Wild plant response rating (0-100): 0
